Key:
Details in all cases: human; call rule not given here
[1] = system: Hepatotoxicity; assay: FDA HLAED, liver enzyme composite activity
[2] = system: Hepatotoxicity; assay: FDA HLAED, serum glutamic oxaloacetic transaminase (SGOT) increase
[3] = system: Hepatotoxicity; assay: FDA HLAED, lactate dehydrogenase (LDH) increase
[4] = system: Hepatotoxicity; assay: FDA HLAED, gamma-glutamyl transferase (GGT) increase
[5] = system: Hepatotoxicity; assay: FDA HLAED, serum glutamic pyruvic transaminase (SGPT) increase
[6] = system: Hepatotoxicity; assay: FDA HLAED, alkaline phosphatase increase
Throughout, for GGT Increase - Index Value: reference of the scale not given here.
Throughout, for LDH Increase - Index Value: reference of the scale not given here.

SMILES	Composite Activity - Active [1]	Composite Activity - Marginal [1]	Composite Activity - Score [1]	SGOT Increase - Activity Score [2]	SGOT Increase - Index Value [2]	SGOT Increase - Number of Reports [2]	LDH Increase - Activity Score [3]	LDH Increase - Index Value [3]	LDH Increase - Number of Reports [3]	GGT Increase - Activity Score [4]	GGT Increase - Index Value [4]	GGT Increase - Number of Reports [4]	SGPT Increase - Activity Score [5]	SGPT Increase - Index Value [5]	SGPT Increase - Number of Reports [5]	Alkaline Phosphatase Increase - Activity Score [6]	Alkaline Phosphatase Increase - Index Value [6]	Alkaline Phosphatase Increase - Number of Reports [6]
CC=CC1=C(C(=O)O)N2C(=O)[C@@H](NC(=O)[C@H](N)c3ccc(O)cc3)[C@H]2SC1 [CEFPROZIL]	0	0	Inactive	Inactive	0.4	>= 4	Inactive	0.2	>= 4	Inactive	0.1	< 4	Inactive	0.2	>= 4	Inactive	0.2	>= 4
CC(C)(O/N=C(\C(=O)N[C@@H]1C(=O)N2C(C(=O)[O-])=C(C[n+]3ccccc3)CS[C@H]12)c1csc(N)n1)C(=O)O [CEFTAZIDIME]	0	0	Inactive	Inactive	0	< 4	Inactive	0	< 4	Inactive	0	< 4	Inactive	0	< 4	Inactive	0	< 4
Nc1nc(/C(=C/CC(=O)O)C(=O)N[C@@H]2C(=O)N3C(C(=O)O)=CCS[C@H]23)cs1 [CEFTIBUTEN]	0	0	Inactive	Inactive	0	< 4	Inactive	0	< 4	Inactive	0	< 4	Inactive	0	< 4	Inactive	0	< 4

Source: ChEMBL document CHEMBL1697781, “Assessment of the health effects of chemicals in humans: II. Construction of an adverse effects database for QSAR modeling” (Curr Drug Discov Technol, 2004)
